Test system: ΔrhlI strain expressing RhlR T58L
Assay: RNA-seq gene expression
Assay type: cell-based, Pseudomonas aeruginosa
Set-up: opmD Expression value / mexI Expression value / mexH Expression value / mexG Expression value / lasB Expression value / rhlA Expression value / rhlB Expression value / rhlR Expression value / lecB Expression value / fhp Expression value / chiC Expression value / hcnA Expression value / mvfR Expression value / katB Expression value / norC Expression value / norB Expression value / katA Expression value: unit not given here
Details: 2 µM C4HSL
Method: To determine the effects of hypo- and hypersensitivity to C4HSL on RhlR-dependent transcription activation in P. aeruginosa, we performed RNA-seq on ΔrhlI strains expressing WT RhlR, RhlR T58L, and RhlR A44M in the presence of 2 µM C4HSL. We chose this approach to better control the levels of C4HSL across samples. All gene expression analyses were done relative to a ΔrhlI strain without exogenous supplementation of AHL. Thus, we examined the total increase in C4HSL-dependent gene regulation. We observed increased rhlA RNA levels in strains expressing WT RhlR and the RhlR T58L variant compared to ΔrhlI without C4HSL or a strain expressing the RhlR A44M variant (Table 2; Table S1). […] To corroborate our RNA-seq data, we built an rhlA promoter fusion to mScarlet and assayed reporter levels in the same genetic backgrounds as our transcriptomic experiment (Fig. S7D). Strains expressing hypersensitive RhlR variants produced similar levels of fluorescent signal relative to the WT strain, while a strain expressing a hyposensitive RhlR variant had diminished levels of fluorescent reporter (Fig. S7D).
A total of […] of overnight cultures was back diluted 1:100 in 20 mL of fresh LB media and incubated for 5 h at 37°C with shaking. Cells were harvested by centrifugation, and pellets were frozen until RNA extraction. RNA was extracted using the Invitrogen PureLink RNA Mini Kit. Pellets were resuspended in 100 µL lysozyme solution containing 10 mM Tris-HCl pH 8.0, 0.1 mM EDTA, and 1 mg/mL lysozyme. Five microliters of 1% SDS was added, and the solution was mixed with a vortex and incubated at room temperature for 5 min. A total of 350 µL lysis buffer (Invitrogen) was added with 10 µL 2-mercaptoethanol for each 1 mL of lysis buffer and vortexed. Cells were lysed by bead beating (BioSpec 0.1 MM Zirconia/Silica Beads) for two rounds of 50 s. Lysed cells were transferred to fresh microcentrifuge tubes with 250 µL of 100% ethanol and mixed with a vortex. Samples were spun in spin cartridges (Invitrogen) at 12,000 × g for 15 s at room temperature, and the flow-through was discarded. A total of 700 µL Wash Buffer I (Invitrogen) was added and spun at 12,000 × g for 15 s at room temperature, and the flow-through was discarded. A total of 500 µL Wash Buffer II (Invitrogen) with ethanol was added and centrifuged for 12,000 × g for 15 s at room temperature; the flow-through was discarded, and RNA samples were washed again. Cells were spun at 12,000 × g for 1 min at room temperature to dry the membrane with the bound RNA. A total of 50 µL RNAse-free water was added to the center of the spin cartridge, incubated at room temperature for 1 min, and centrifuged for 2 min at ≥12,000 × g at room temperature. Extracted RNA was then frozen at −80°C until further use.
Bulk RNA was sent to SeqCenter (Pittsburgh, PA) where it was processed for paired-end Illumina sequencing via rRNA depletion using Ribo-Zero Plus (Illumina). Fastq files generated by SeqCenter were processed using Rockhopper with default settings ([61][–][63]). Briefly, fastq files were aligned to the genome of Pseudomonas aeruginosa UCBPP-PA14. The reads were subsequently normalized using upper-quartile normalization, and transcript abundance was determined by reads per kilobase per million mapped reads. Differential gene expression analysis was conducted using a negative binomial distribution model, outputting a P-value for each transcript. The P-values were then corrected for false discovery using the Benjamini-Hochberg procedure, resulting in the q-values reported here (Table S2). SignalMap v2.0 (NimbleGen Systems) was used to visualize read counts for phzABCDEFG1/2, phzH, phzM, and phzS (Fig. 5). Aligned sequences generated in Rockhopper were converted to GFF files, and genes of interest were isolated into unique GFF files ([37]).

CCCC(=O)N[C@H]1CCOC1=O [C4HSL, N-butyryl-L-homoserine lactone]
chiC Expression value: 3,615,357
fhp Expression value: 396,561.5
hcnA Expression value: 9,523
katA Expression value: 12,151,161
katB Expression value: 2,895,168
lasB Expression value: 19,328,123.5
lecB Expression value: 250,651
mexG Expression value: 332,571.5
mexH Expression value: 723,774.5
mexI Expression value: 830,527.5
mvfR Expression value: 267,969
norB Expression value: 7,897,306
norC Expression value: 3,026,578.5
opmD Expression value: 525,347
phnA Expression value: 1,406,882.5
phnB Expression value: 434,424
phzA1 Expression value: 6,068
phzA2 Expression value: 61,057.5
phzB1 Expression value: 73,793
phzB2 Expression value: 1,991,168
phzC1 Expression value: 272,395.5
phzC2 Expression value: 1,969,682.5
phzD1 Expression value: 1,058,250
phzD2 Expression value: 977,075.5
phzE1 Expression value: 2,058,712.5
phzE2 Expression value: 1,532,300.5
phzF1 Expression value: 1,047,752.5
phzF2 Expression value: 1,048,278.5
phzG1 Expression value: 312,421.5
phzG2 Expression value: 1,165,545
phzM Expression value: 79,302.5
phzS Expression value: 377,065.5
pqsA Expression value: 870,485.5
pqsB Expression value: 2,171,803.5
pqsC Expression value: 2,097,049
pqsD Expression value: 2,742,260
pqsE Expression value: 1,483,216.5
rhlA Expression value: 879,447.5
rhlB Expression value: 741,717
rhlR Expression value: 906,213
chiC Log2fold change (vs ΔrhlI without AHL): 4.706
fhp Log2fold change (vs ΔrhlI without AHL): 5.681
hcnA Log2fold change (vs ΔrhlI without AHL): −1.753
katA Log2fold change (vs ΔrhlI without AHL): 1.97
katB Log2fold change (vs ΔrhlI without AHL): 7.877
lasB Log2fold change (vs ΔrhlI without AHL): 2.595
lecB Log2fold change (vs ΔrhlI without AHL): −0.51
mexG Log2fold change (vs ΔrhlI without AHL): 6.357
mexH Log2fold change (vs ΔrhlI without AHL): 6.234
mexI Log2fold change (vs ΔrhlI without AHL): 5.568
mvfR Log2fold change (vs ΔrhlI without AHL): 0.187
norB Log2fold change (vs ΔrhlI without AHL): 7.599
norC Log2fold change (vs ΔrhlI without AHL): 7.238
opmD Log2fold change (vs ΔrhlI without AHL): 6.207
phnA Log2fold change (vs ΔrhlI without AHL): −0.7187
phnB Log2fold change (vs ΔrhlI without AHL): −0.4007
phzA1 Log2fold change (vs ΔrhlI without AHL): −2.305
phzA2 Log2fold change (vs ΔrhlI without AHL): 2.537
phzB1 Log2fold change (vs ΔrhlI without AHL): −2.194
phzB2 Log2fold change (vs ΔrhlI without AHL): 3.237
phzC1 Log2fold change (vs ΔrhlI without AHL): 0.3098
phzC2 Log2fold change (vs ΔrhlI without AHL): 3.428
phzD1 Log2fold change (vs ΔrhlI without AHL): 2.278
phzD2 Log2fold change (vs ΔrhlI without AHL): 2.374
phzE1 Log2fold change (vs ΔrhlI without AHL): 2.344
phzE2 Log2fold change (vs ΔrhlI without AHL): 2.345
phzF1 Log2fold change (vs ΔrhlI without AHL): 2.194
phzF2 Log2fold change (vs ΔrhlI without AHL): 2.188
phzG1 Log2fold change (vs ΔrhlI without AHL): 0.6164
phzG2 Log2fold change (vs ΔrhlI without AHL): 3.389
phzM Log2fold change (vs ΔrhlI without AHL): −2.128
phzS Log2fold change (vs ΔrhlI without AHL): −0.989
pqsA Log2fold change (vs ΔrhlI without AHL): −1.603
pqsB Log2fold change (vs ΔrhlI without AHL): −0.7949
pqsC Log2fold change (vs ΔrhlI without AHL): −0.8699
pqsD Log2fold change (vs ΔrhlI without AHL): −0.6876
pqsE Log2fold change (vs ΔrhlI without AHL): −0.7631
rhlA Log2fold change (vs ΔrhlI without AHL): 1.8
rhlB Log2fold change (vs ΔrhlI without AHL): 2.488
rhlR Log2fold change (vs ΔrhlI without AHL): 0.5062
